Experimental data from ChEMBL document CHEMBL1136638, “N-Benzoyl amino acids as LFA-1/ICAM inhibitors 1: amino acid structure-activity relationship” (Bioorg Med Chem Lett, 2003).

Biological target: Intercellular adhesion molecule (ICAM-1), Integrin alpha-L/beta-2 (Homo sapiens, UniProt P05107+P05362+P20701)
Assay: Concentration required to inhibit binding of ICAM-1 to LFA-1 (Leukocyte function-associated antigen-1), evaluated ELISA
Type: protein-complex assay

Intercellular adhesion molecule (ICAM-1), Integrin alpha-L/beta-2, sequence (P20701 whole entry): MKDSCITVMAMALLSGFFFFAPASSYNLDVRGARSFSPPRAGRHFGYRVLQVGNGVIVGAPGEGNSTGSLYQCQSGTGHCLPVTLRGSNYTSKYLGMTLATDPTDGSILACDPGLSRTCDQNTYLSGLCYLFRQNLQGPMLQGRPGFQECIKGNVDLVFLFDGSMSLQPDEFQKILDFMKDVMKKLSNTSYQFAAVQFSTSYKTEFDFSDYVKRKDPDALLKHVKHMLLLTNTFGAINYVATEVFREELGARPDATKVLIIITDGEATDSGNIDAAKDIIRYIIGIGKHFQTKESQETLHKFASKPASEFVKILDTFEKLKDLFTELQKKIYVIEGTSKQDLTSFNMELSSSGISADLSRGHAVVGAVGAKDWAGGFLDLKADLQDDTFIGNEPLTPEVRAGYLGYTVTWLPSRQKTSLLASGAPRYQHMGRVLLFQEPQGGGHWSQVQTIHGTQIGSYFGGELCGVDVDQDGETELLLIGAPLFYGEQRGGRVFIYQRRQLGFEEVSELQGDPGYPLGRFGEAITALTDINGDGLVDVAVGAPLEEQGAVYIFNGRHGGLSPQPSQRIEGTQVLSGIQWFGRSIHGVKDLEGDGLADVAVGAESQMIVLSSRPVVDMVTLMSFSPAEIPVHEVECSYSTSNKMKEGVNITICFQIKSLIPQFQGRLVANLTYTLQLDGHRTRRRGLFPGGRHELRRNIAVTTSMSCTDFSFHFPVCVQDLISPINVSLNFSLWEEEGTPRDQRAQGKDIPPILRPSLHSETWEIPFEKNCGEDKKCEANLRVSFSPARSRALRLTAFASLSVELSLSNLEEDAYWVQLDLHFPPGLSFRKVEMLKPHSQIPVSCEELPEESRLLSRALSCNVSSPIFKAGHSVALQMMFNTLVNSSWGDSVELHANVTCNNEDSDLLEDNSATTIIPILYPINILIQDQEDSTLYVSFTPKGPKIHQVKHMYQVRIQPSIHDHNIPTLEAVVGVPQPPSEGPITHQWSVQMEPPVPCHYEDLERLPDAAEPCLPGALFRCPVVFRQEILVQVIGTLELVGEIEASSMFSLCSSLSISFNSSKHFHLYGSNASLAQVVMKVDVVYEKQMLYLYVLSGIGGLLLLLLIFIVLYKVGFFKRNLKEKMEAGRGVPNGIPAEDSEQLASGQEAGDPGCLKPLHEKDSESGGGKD
Intercellular adhesion molecule (ICAM-1), Integrin alpha-L/beta-2, sequence (P05362 whole entry): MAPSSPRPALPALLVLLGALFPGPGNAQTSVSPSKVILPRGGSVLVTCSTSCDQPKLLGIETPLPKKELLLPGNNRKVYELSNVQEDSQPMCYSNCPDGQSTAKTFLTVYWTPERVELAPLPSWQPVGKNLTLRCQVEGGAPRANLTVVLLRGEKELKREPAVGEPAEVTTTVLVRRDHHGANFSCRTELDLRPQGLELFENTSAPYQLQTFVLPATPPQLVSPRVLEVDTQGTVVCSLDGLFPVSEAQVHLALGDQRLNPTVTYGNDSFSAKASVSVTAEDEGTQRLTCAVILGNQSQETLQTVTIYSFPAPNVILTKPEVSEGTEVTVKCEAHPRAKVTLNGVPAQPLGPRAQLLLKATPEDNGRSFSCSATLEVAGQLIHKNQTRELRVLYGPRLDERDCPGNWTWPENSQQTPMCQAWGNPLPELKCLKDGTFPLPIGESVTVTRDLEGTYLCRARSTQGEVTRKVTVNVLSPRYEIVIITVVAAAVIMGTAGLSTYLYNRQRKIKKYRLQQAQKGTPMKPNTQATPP
Intercellular adhesion molecule (ICAM-1), Integrin alpha-L/beta-2, sequence (P05107 whole entry): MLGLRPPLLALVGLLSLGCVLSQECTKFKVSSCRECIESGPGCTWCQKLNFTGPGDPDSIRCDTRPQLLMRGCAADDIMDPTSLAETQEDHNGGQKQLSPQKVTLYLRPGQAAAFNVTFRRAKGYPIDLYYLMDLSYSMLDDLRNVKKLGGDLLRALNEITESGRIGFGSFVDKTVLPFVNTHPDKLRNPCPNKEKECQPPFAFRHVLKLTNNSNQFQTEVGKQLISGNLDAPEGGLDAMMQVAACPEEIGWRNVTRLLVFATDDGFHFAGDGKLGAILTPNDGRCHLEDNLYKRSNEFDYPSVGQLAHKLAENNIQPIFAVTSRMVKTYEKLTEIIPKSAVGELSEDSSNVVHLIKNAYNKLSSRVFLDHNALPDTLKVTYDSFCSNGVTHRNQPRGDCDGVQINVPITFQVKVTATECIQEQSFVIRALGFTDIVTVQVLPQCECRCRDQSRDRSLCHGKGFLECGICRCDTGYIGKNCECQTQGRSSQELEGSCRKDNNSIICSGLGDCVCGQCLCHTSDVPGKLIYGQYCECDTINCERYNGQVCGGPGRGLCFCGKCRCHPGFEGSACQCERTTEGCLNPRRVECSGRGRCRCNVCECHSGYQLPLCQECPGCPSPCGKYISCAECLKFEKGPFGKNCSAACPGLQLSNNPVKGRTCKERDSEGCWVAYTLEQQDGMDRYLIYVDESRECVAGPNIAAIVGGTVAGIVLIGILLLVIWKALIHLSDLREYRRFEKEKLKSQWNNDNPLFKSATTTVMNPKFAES

Row | Structure (SMILES) | IC50 [µM]
1 | CC(C)C[C@H](NC(=O)c1ccccc1Br)C(=O)O | 54.3
2 | O=C(N[C@@H](Cc1ccc(-c2ccccc2)cc1)C(=O)O)c1ccccc1Br | 50.5
3 | O=C(N[C@H](Cc1cccc2ccccc12)C(=O)O)c1ccccc1Br | > 200
4 | O=C(N[C@H](Cc1ccc2ccccc2c1)C(=O)O)c1ccccc1Br | 243
5 | O=C(N[C@H](Cc1ccccc1)C(=O)O)c1ccccc1Br | 280
6 | O=C(N[C@@H](Cc1cnc[nH]1)C(=O)O)c1ccccc1Br | 0.75
7 | O=C(N[C@H](CO)C(=O)O)c1ccccc1Br | 72.6
8 | O=C(N[C@@H](Cc1c[nH]c2ccccc12)C(=O)NO)c1ccccc1Br | 140
9 | O=C(N[C@@H](Cc1c[nH]c2ncccc12)C(=O)O)c1ccccc1Br | 63.8
10 | NC(=O)[C@H](Cc1c[nH]c2ccccc12)NC(=O)c1ccccc1Br | > 1000
11 | O=C(O)[C@@H]1CCCN1C(=O)c1ccccc1Br | > 1000
12 | CC[C@H](C)[C@H](NC(=O)c1ccccc1Br)C(=O)O | 106
13 | COC(=O)[C@H](Cc1c[nH]c2ccccc12)NC(=O)c1ccccc1Br | > 1000
14 | O=C(O)C[C@H](NC(=O)c1ccccc1Br)C(=O)O | > 200
15 | C[C@@H](NC(=O)c1ccccc1Br)C(=O)O | 57.5
16 | O=C(O)CNC(=O)c1ccccc1Br | 314
17 | O=C(NCCc1c[nH]c2ccccc12)c1ccccc1Br | > 1000
18 | O=C(N[C@H](Cc1c[nH]c2ccccc12)C(=O)O)c1ccccc1Br | 76.6

Further compounds by falling IC50, results first:

Row | IC50 [µM] | Structure (SMILES)
19 | 36.8 | N#Cc1ccc(C[C@H](NC(=O)c2ccccc2Br)C(=O)O)cc1
20 | 30.1 | O=C(O)CC[C@H](NC(=O)c1ccccc1Br)C(=O)O
21 | 28.4 | O=C(N[C@@H](Cc1c[nH]c2ccc(Br)cc12)C(=O)O)c1ccccc1Br
22 | 24.4 | O=C(N[C@@H](Cc1ccc2ccccc2c1)C(=O)O)c1ccccc1Br
23 | 24.2 | O=C(N[C@@H](Cc1c[nH]c2ccc(O)cc12)C(=O)O)c1ccccc1Br
24 | 15.9 | O=C(N[C@@H](Cc1cccc2ccccc12)C(=O)O)c1ccccc1Br
25 | 11.3 | CC(C)[C@H](NC(=O)c1ccccc1Br)C(=O)O
26 | 10.8 | O=C(N[C@@H](Cc1c[nH]c2ccc(F)cc12)C(=O)O)c1ccccc1Br
27 | 7.64 | O=C(N[C@@H](Cc1c[nH]c2cc(F)ccc12)C(=O)O)c1ccccc1Br
28 | 7.46 | CSCC[C@H](NC(=O)c1ccccc1Br)C(=O)O
29 | 6.64 | C[C@H](NC(=O)c1ccccc1Br)C(=O)O
30 | 6.15 | O=C(N[C@@H](CO)C(=O)O)c1ccccc1Br
31 | 5.5 | O=C(N[C@@H](Cc1cccs1)C(=O)O)c1ccccc1Br
32 | 5.09 | O=C(N[C@@H](CCc1ccccc1)C(=O)O)c1ccccc1Br
33 | 4.89 | O=C(N[C@@H](Cc1ccccc1)C(=O)O)c1ccccc1Br
34 | 4.26 | O=C(N[C@@H](CS)C(=O)O)c1ccccc1Br
35 | 3.84 | C[C@@H](O)[C@H](NC(=O)c1ccccc1Br)C(=O)O
36 | 2.77 | COc1ccc2[nH]cc(C[C@H](NC(=O)c3ccccc3Br)C(=O)O)c2c1
37 | 2.71 | N=C(N)NCCC[C@H](NC(=O)c1ccccc1Br)C(=O)O
38 | 1.77 | NC(=O)CC[C@H](NC(=O)c1ccccc1Br)C(=O)O
39 | 1.7 | O=C(N[C@@H](Cc1c[nH]c2ccccc12)C(=O)O)c1ccccc1Br
40 | 1.21 | NCCCC[C@H](NC(=O)c1ccccc1Br)C(=O)O
41 | 1.09 | O=C(N[C@@H](Cc1ccc(O)cc1)C(=O)O)c1ccccc1Br
42 | 1.08 | NC(=O)C[C@H](NC(=O)c1ccccc1Br)C(=O)O
